Data as given in ChEMBL document CHEMBL1649456 (Antimicrob Agents Chemother, 2009).
≈ marks a conversion by molar mass, not a printed value.

Columns and labels:
Coxiella burnetii [1] = test: Antimicrobial activity against compound-susceptible Coxiella burnetii Nine-Mile obtained from patient with acute Q fever infected in african green monkey Vero cells after 24 hrs by shell vial assay; type: functional
Coxiella burnetii [2] = test: Antimicrobial activity against compound-intermediate susceptible Coxiella burnetii Q212 obtained from patient with acute Q fever infected in african green monkey Vero cells after 24 hrs by shell vial assay; type: functional; settings: Q212, 24 h
Coxiella burnetii [3] = test: Antimicrobial activity against compound-intermediate susceptible Coxiella burnetii isolate CP1 obtained from patient with acute Q fever infected in african green monkey Vero cells after 24 hrs by shell vial assay; type: functional; settings: isolate CP1, 24 h
Coxiella burnetii [4] = test: Antimicrobial activity against compound-susceptible Coxiella burnetii isolate CP2 obtained from patient with acute Q fever infected in african green monkey Vero cells after 24 hrs by shell vial assay; type: functional; settings: isolate CP2, 24 h
Coxiella burnetii [5] = test: Antimicrobial activity against compound-susceptible Coxiella burnetii isolate CP3 obtained from patient with acute Q fever infected in african green monkey Vero cells after 24 hrs by shell vial assay; type: functional; settings: isolate CP3, 24 h
Coxiella burnetii [6] = test: Antimicrobial activity against compound-susceptible Coxiella burnetii isolate CP4 obtained from patient with acute Q fever infected in african green monkey Vero cells after 24 hrs by shell vial assay; type: functional; settings: isolate CP4, 24 h
Coxiella burnetii [7] = test: Antimicrobial activity against compound-susceptible Coxiella burnetii isolate CP5 obtained from patient with acute Q fever infected in african green monkey Vero cells after 24 hrs by shell vial assay; type: functional; settings: isolate CP5, 24 h
Coxiella burnetii [8] = test: Antimicrobial activity against compound-susceptible Coxiella burnetii isolate CP6 obtained from patient with acute Q fever infected in african green monkey Vero cells after 24 hrs by shell vial assay; type: functional; settings: isolate CP6, 24 h
Coxiella burnetii [9] = test: Antimicrobial activity against compound-susceptible Coxiella burnetii isolate CP7 obtained from patient with acute Q fever infected in african green monkey Vero cells after 24 hrs by shell vial assay; type: functional; settings: isolate CP7, 24 h
Coxiella burnetii [10] = test: Antimicrobial activity against compound-susceptible Coxiella burnetii isolate CP8 obtained from patient with acute Q fever infected in african green monkey Vero cells after 24 hrs by shell vial assay; type: functional; settings: isolate CP8, 24 h
Coxiella burnetii [11] = test: Antimicrobial activity against compound-susceptible Coxiella burnetii Q212 obtained from patient with acute Q fever infected in african green monkey Vero cells after 24 hrs by shell vial assay; type: functional; settings: Q212, 24 h
Coxiella burnetii [12] = test: Antimicrobial activity against compound-susceptible Coxiella burnetii isolate CP1 obtained from patient with acute Q fever infected in african green monkey Vero cells after 24 hrs by shell vial assay; type: functional; settings: isolate CP1, 24 h
Coxiella burnetii [13] = test: Antimicrobial activity against compound-intermediate susceptible Coxiella burnetii isolate CP4 obtained from patient with acute Q fever infected in african green monkey Vero cells after 24 hrs by shell vial assay; type: functional; settings: isolate CP4, 24 h
Vero = test: Cytotoxicity against african green monkey Vero cells at 4 ug/ml; type: cell-based; settings: chlorocebus sabaeus

| Structure (SMILES) | MIC (Coxiella burnetii [1]) | MIC (Coxiella burnetii [2]) | MIC (Coxiella burnetii [3]) | MIC (Coxiella burnetii [4]) | MIC (Coxiella burnetii [5]) | MIC (Coxiella burnetii [6]) | MIC (Coxiella burnetii [7]) | MIC (Coxiella burnetii [8]) | MIC (Coxiella burnetii [9]) | MIC (Coxiella burnetii [10]) | MIC (Coxiella burnetii [11]) | MIC (Coxiella burnetii [12]) | MIC (Coxiella burnetii [13]) | Activity (Vero) |
| --- | --- | --- | --- | --- | --- | --- | --- | --- | --- | --- | --- | --- | --- | --- |
| O=C(O)c1cn(C2CC2)c2cc(N3CCNCC3)c(F)cc2c1=O [CIPROFLOXACIN] | 4 µg/mL (≈ 12.1 µM) | 4 µg/mL (≈ 12.1 µM) | 4 µg/mL (≈ 12.1 µM) | 4 µg/mL (≈ 12.1 µM) | 4 µg/mL (≈ 12.1 µM) | 4 µg/mL (≈ 12.1 µM) | 4 µg/mL (≈ 12.1 µM) | 4 µg/mL (≈ 12.1 µM) | 4 µg/mL (≈ 12.1 µM) | 4 µg/mL (≈ 12.1 µM) | – | – | – | – |
| CC[C@H]1OC(=O)[C@H](C)[C@@H](O[C@H]2C[C@@](C)(OC)[C@@H](O)[C@H](C)O2)[C@H](C)[C@@H](O[C@@H]2O[C@H](C)C[C@H](N(C)C)[C@H]2O)[C@](C)(OC)C[C@@H](C)C(=O)[C@H](C)[C@@H](O)[C@]1(C)O [CLARITHROMYCIN] | 2 µg/mL (≈ 2.67 µM) | 2 µg/mL (≈ 2.67 µM) | 2 µg/mL (≈ 2.67 µM) | 2 µg/mL (≈ 2.67 µM) | 2 µg/mL (≈ 2.67 µM) | 2 µg/mL (≈ 2.67 µM) | 2 µg/mL (≈ 2.67 µM) | 2 µg/mL (≈ 2.67 µM) | 2 µg/mL (≈ 2.67 µM) | 2 µg/mL (≈ 2.67 µM) | 4 µg/mL (≈ 5.35 µM) | 4 µg/mL (≈ 5.35 µM) | – | – |
| C[C@H]1c2cccc(O)c2C(=O)C2=C(O)[C@]3(O)C(=O)C(C(N)=O)=C(O)[C@@H](N(C)C)[C@@H]3[C@@H](O)[C@@H]21.O [DOXYCYCLINE] | 1 µg/mL | 1 µg/mL | 1 µg/mL | 1 µg/mL | 1 µg/mL | 2 µg/mL | 1 µg/mL | 1 µg/mL | 1 µg/mL | 1 µg/mL | 2 µg/mL | 2 µg/mL | 1 µg/mL | – |
| CC(=O)NC[C@H]1CN(c2ccc(N3CCOCC3)c(F)c2)C(=O)O1 [LINEZOLID] | 2 µg/mL (≈ 5.93 µM) | 2 µg/mL (≈ 5.93 µM) | 2 µg/mL (≈ 5.93 µM) | 2 µg/mL (≈ 5.93 µM) | 2 µg/mL (≈ 5.93 µM) | 2 µg/mL (≈ 5.93 µM) | 2 µg/mL (≈ 5.93 µM) | 2 µg/mL (≈ 5.93 µM) | 2 µg/mL (≈ 5.93 µM) | 2 µg/mL (≈ 5.93 µM) | 4 µg/mL (≈ 11.9 µM) | 4 µg/mL (≈ 11.9 µM) | – | – |
| CC1COc2c(N3CCN(C)CC3)c(F)cc3c(=O)c(C(=O)O)cn1c23 (centres undefined) [OFLOXACIN] | 1 µg/mL (≈ 2.77 µM) | 1 µg/mL (≈ 2.77 µM) | 1 µg/mL (≈ 2.77 µM) | 1 µg/mL (≈ 2.77 µM) | 1 µg/mL (≈ 2.77 µM) | 1 µg/mL (≈ 2.77 µM) | 1 µg/mL (≈ 2.77 µM) | 1 µg/mL (≈ 2.77 µM) | 1 µg/mL (≈ 2.77 µM) | 1 µg/mL (≈ 2.77 µM) | 2 µg/mL (≈ 5.53 µM) | 2 µg/mL (≈ 5.53 µM) | – | – |
| CN(C)c1cc(NC(=O)CNC(C)(C)C)c(O)c2c1C[C@H]1C[C@H]3[C@H](N(C)C)C(O)=C(C(N)=O)C(=O)[C@@]3(O)C(O)=C1C2=O [TIGECYCLINE] | 0.25 µg/mL (≈ 0.427 µM) | 0.25 µg/mL (≈ 0.427 µM) | 0.25 µg/mL (≈ 0.427 µM) | 0.25 µg/mL (≈ 0.427 µM) | 0.25 µg/mL (≈ 0.427 µM) | 0.25 µg/mL (≈ 0.427 µM) | 0.25 µg/mL (≈ 0.427 µM) | 0.25 µg/mL (≈ 0.427 µM) | 0.25 µg/mL (≈ 0.427 µM) | 0.25 µg/mL (≈ 0.427 µM) | 0.5 µg/mL (≈ 0.854 µM) | 0.5 µg/mL (≈ 0.854 µM) | – | Non-toxic |
| N[C@@H]1[C@H]2CN(c3nc4c(cc3F)c(=O)c(C(=O)O)cn4-c3ccc(F)cc3F)C[C@@H]12 [TROVAFLOXACIN] | 1 µg/mL (≈ 2.4 µM) | 1 µg/mL (≈ 2.4 µM) | 1 µg/mL (≈ 2.4 µM) | 1 µg/mL (≈ 2.4 µM) | 1 µg/mL (≈ 2.4 µM) | 1 µg/mL (≈ 2.4 µM) | 1 µg/mL (≈ 2.4 µM) | 1 µg/mL (≈ 2.4 µM) | 1 µg/mL (≈ 2.4 µM) | 1 µg/mL (≈ 2.4 µM) | 2 µg/mL (≈ 4.8 µM) | 2 µg/mL (≈ 4.8 µM) | – | – |
